Test results: patent US7517874B2 (priority 2007, dated 2009)
Where two headings read alike, the source gives them in different places.

Tests used:
rat CB2 receptor (rCB2) = target: T1, rat CB2 receptor (rCB2) (Rattus norvegicus, UniProt Q9QZN9); experiment: cell-based; assay type: cell-based; details: for +/− RCB2: agonist or inverse agonist at rCB2
T1 sequence (Q9QZN9 1-360): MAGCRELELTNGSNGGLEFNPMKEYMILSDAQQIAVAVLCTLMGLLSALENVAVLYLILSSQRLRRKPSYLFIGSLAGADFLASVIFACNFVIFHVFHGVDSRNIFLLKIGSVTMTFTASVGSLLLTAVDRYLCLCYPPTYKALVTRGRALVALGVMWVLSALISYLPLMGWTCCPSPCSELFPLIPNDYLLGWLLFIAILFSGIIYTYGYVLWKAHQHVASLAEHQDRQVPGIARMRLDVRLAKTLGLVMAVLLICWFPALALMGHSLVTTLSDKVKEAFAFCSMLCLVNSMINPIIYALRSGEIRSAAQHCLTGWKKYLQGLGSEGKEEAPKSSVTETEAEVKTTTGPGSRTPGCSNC
Summary of the method: (§1)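 First, cells in IBMX-containing HEPES-buffered HBSS are raised to elevated cAMP with 2-8 μM NKH-477 for 30 min. Data are normalised to the forskolin and forskolin + 1 μM CP55,940 controls.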

[1] = target: human CB1 receptor (hCB1) (Homo sapiens, UniProt P21554); experiment: cell-based; assay type: cell-based; details: for +/− HCB1: agonist or inverse agonist at hCB1
Summary of the method: as §1

[2] = groups >100 nM-10 μM and >10 μM, cAMP, CHO-K1 hCB1, read-out: EC50 HCB1

Sequence of human CB1 receptor (hCB1) (P21554 whole entry): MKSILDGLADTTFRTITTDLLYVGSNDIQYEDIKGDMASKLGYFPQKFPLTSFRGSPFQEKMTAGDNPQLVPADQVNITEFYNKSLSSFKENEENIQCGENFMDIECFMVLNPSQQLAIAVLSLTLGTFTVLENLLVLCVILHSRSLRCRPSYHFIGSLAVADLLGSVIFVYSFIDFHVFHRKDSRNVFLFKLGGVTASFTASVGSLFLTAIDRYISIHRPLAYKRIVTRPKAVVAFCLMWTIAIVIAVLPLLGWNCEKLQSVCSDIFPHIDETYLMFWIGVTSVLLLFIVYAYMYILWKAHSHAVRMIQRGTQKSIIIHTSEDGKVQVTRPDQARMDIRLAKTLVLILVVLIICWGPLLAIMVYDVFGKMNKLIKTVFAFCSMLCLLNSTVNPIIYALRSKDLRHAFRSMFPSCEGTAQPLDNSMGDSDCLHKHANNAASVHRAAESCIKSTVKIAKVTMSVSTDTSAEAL

| SMILES | +/− RCB2 (rat CB2 receptor (rCB2)) | EC50 [1] | EC50 [1, 2] | EC50 (rat CB2 receptor (rCB2)) | +/− HCB1 [1] |
| --- | --- | --- | --- | --- | --- |
| CNC(=O)[C@@H](NC(=O)c1nc(C2=CCCCC2)n2c1CN(C)CCC2)C(C)(C)C [Compound 396, (S)-3-cyclohexenyl-N-(3,3-dimethyl-1-(methylamino)-1-oxobutan-2-yl)-8-methyl-6,7,8,9-tetrahydro-5H-imidazo[1,5-a][1,4]diazepine-1-carboxamide] | + | > 10000 nM |  |  |  |
| CCN1CCn2c(-c3ccc(Cl)cc3)nc(C(=O)N[C@H](CO)C(C)(C)C)c2C1 [Compound 161, (S)-3-(4-chlorophenyl)-7-ethyl-N-(1-hydroxy-3,3-dimethylbutan-2-yl)-5,6,7,8-tetrahydroimidazo[1,5-a]pyrazine-1-carboxamide] | − | > 10000 nM |  |  |  |
| CNC(=O)[C@@H](NC(=O)c1nc(-c2ccc(C)c(F)c2)n2c1CN(C)CC2)C(C)(C)C [Compound 240, (S)-N-(3,3-dimethyl-1-(methylamino)-1-oxobutan-2-yl)-3-(3-fluoro-4-methylphenyl)-7-methyl-5,6,7,8-tetrahydroimidazo[1,5-a]pyrazine-1-carboxamide] | − | > 10000 nM |  |  |  |
| CN1CCCn2c(-c3ccccc3)nc(C(=O)N[C@H](C(=O)NCCF)C(C)(C)C)c2C1 [Compound 476, (S)-N-(1-(2-fluoroethylamino)-3,3-dimethyl-1-oxobutan-2-yl)-8-methyl-3-phenyl-6,7,8,9-tetrahydro-5H-imidazo[1,5-a][1,4]diazepine-1-carboxamide] | + | > 10000 nM |  |  |  |
| CNC(=O)[C@@H](NC(=O)c1nc(C2=CCC(C)CC2)n2c1CN(C)CC2)C(C)(C)C (stereo partly drawn) [Compound 270, N-((S)-3,3-dimethyl-1-(methylamino)-1-oxobutan-2-yl)-7-methyl-3-(4-methylcyclohex-1-enyl)-5,6,7,8-tetrahydroimidazo[1,5-a]pyrazine-1-carboxamide] | − | > 10000 nM |  |  |  |
| O=C(Nc1ccccc1)c1nc(-c2ccccc2)n2c1CN(C(=O)C1CC1)CC2 [Compound 129, 7-(cyclopropanecarbonyl)-N,3-diphenyl-5,6,7,8-tetrahydroimidazo[1,5-a]pyrazine-1-carboxamide] | − |  | > 10000 nM |  |  |
| CNC(=O)[C@@H](NC(=O)c1nc(CCCN2CCOCC2)n2c1CN(C)CC2)C(C)(C)C [Compound 309, (S)-N-(3,3-dimethyl-1-(methylamino)-1-oxobutan-2-yl)-7-methyl-3-(3-morpholinopropyl)-5,6,7,8-tetrahydroimidazo[1,5-a]pyrazine-1-carboxamide] |  | > 10000 nM |  | > 10 µM |  |
| CNC(=O)[C@H](CC(C)C)NC(=O)c1nc(-c2ccc(C(F)(F)F)cc2F)n2c1CN(C)CCC2 [Compound 533, (S)-3-(2-fluoro-4-(trifluoromethyl)phenyl)-8-methyl-N-(4-methyl-1-(methylamino)-1-oxopentan-2-yl)-6,7,8,9-tetrahydro-5H-imidazo[1,5-a][1,4]diazepine-1-carboxamide] | + | > 10000 nM |  |  |  |
| O=C(NN1CCCCC1)c1nc(-c2ccccc2)n2c1CN(CCO)CC2 [Compound 156, 7-(2-hydroxyethyl)-3-phenyl-N-(piperidin-1-yl)-5,6,7,8-tetrahydroimidazo[1,5-a]pyrazine-1-carboxamide] | − |  | > 10000 nM |  |  |
| CN1CCn2c(-c3ccccc3)nc(C(=O)N[C@H](c3nc(C(C)(C)C)no3)C(C)(C)C)c2C1 [Compound 283, (S)-N-(1-(3-tert-butyl-1,2,4-oxadiazol-5-yl)-2,2-dimethylpropyl)-7-methyl-3-phenyl-5,6,7,8-tetrahydroimidazo[1,5-a]pyrazine-1-carboxamide] | − | > 10000 nM |  |  |  |
| CNC(=O)[C@@H](NC(=O)c1nc(-c2ccccc2)n2c1CN(C(C)C)CC2)C(C)(C)C [Compound 85, (S)-N-(3,3-dimethyl-1-(methylamino)-1-oxobutan-2-yl)-7-isopropyl-3-phenyl-5,6,7,8-tetrahydroimidazo[1,5-a]pyrazine-1-carboxamide] | − | > 10000 nM |  |  |  |
| CN1CCCn2c(-c3ccc(F)c(F)c3)nc(C(=O)N[C@H](C(=O)N(C)C)C(C)(C)C)c2C1 [Compound 561, (S)-3-(3,4-difluorophenyl)-N-(1-(dimethylamino)-3,3-dimethyl-1-oxobutan-2-yl)-8-methyl-6,7,8,9-tetrahydro-5H-imidazo[1,5-a][1,4]diazepine-1-carboxamide] | + |  |  |  | + |
| CNC(=O)[C@@H](NC(=O)c1nc(-c2ccccc2)n2c1CN(CC(C)(C)C)CC2)C(C)(C)C [Compound 55, (S)-N-(3,3-dimethyl-1-(methylamino)-1-oxobutan-2-yl)-7-neopentyl-3-phenyl-5,6,7,8-tetrahydroimidazo[1,5-a]pyrazine-1-carboxamide] | − | > 10000 nM |  |  |  |
| CN1CCn2c(-c3ccc(Cl)cc3F)nc(C(=O)N3CCC(n4c(=O)[nH]c5ccccc54)CC3)c2C1 [Compound 215, 1-(1-(3-(4-chloro-2-fluorophenyl)-7-methyl-5,6,7,8-tetrahydroimidazo[1,5-a]pyrazine-1-carbonyl)piperidin-4-yl)-1H-benzo[d]imidazol-2(3H)-one] | − |  | > 10000 nM |  |  |
| C[C@@H](NC(=O)c1nc(-c2ccccc2)n2c1CNCC2)C(C)(C)C [Compound 26, (R)-N-(3,3-dimethylbutan-2-yl)-3-phenyl-5,6,7,8-tetrahydroimidazo[1,5-a]pyrazine-1-carboxamide] |  | > 10000 nM |  | > 10 µM |  |
| CNC(=O)[C@@H](NC(=O)c1nc(-c2ccc(C(C)=O)cc2)n2c1CN(C)CCC2)C(C)(C)C [Compound 415, (S)-3-(4-acetylphenyl)-N-(3,3-dimethyl-1-(methylamino)-1-oxobutan-2-yl)-8-methyl-6,7,8,9-tetrahydro-5H-imidazo[1,5-a][1,4]diazepine-1-carboxamide] |  | > 10000 nM |  | > 10 µM |  |
| CN1CCn2c(-c3ccc(Cl)cc3F)nc(C(=O)N3CCC(n4c(=O)[nH]c5cc(Cl)ccc54)CC3)c2C1 [Compound 212, 5-chloro-1-(1-(3-(4-chloro-2-fluorophenyl)-7-methyl-5,6,7,8-tetrahydroimidazo[1,5-a]pyrazine-1-carbonyl)piperidin-4-yl)-1H-benzo[d]imidazol-2(3H)-one] | − |  | > 10000 nM |  |  |
| CNC(=O)[C@H](CC(C)(C)C)NC(=O)c1nc(-c2ccc(Cl)c(F)c2)n2c1CN(C)CCC2 [Compound 550, (S)-3-(4-chloro-3-fluorophenyl)-N-(4,4-dimethyl-1-(methylamino)-1-oxopentan-2-yl)-8-methyl-6,7,8,9-tetrahydro-5H-imidazo[1,5-a][1,4]diazepine-1-carboxamide] | − | > 10000 nM |  |  |  |
| CNC(=O)[C@@H](NC(=O)c1nc(-c2cccs2)n2c1CN(C)CCC2)C(C)(C)C [Compound 349, (S)-N-(3,3-dimethyl-1-(methylamino)-1-oxobutan-2-yl)-8-methyl-3-(thiophen-2-yl)-6,7,8,9-tetrahydro-5H-imidazo[1,5-a][1,4]diazepine-1-carboxamide] | + | > 10000 nM |  |  |  |
| Cc1noc([C@@H](NC(=O)c2nc(-c3ccccc3)n3c2CN(CC(C)C)CC3)C(C)(C)C)n1 [Compound 90, (S)-N-(2,2-dimethyl-1-(3-methyl-1,2,4-oxadiazol-5-yl)propyl)-7-isobutyl-3-phenyl-5,6,7,8-tetrahydroimidazo[1,5-a]pyrazine-1-carboxamide] | − | > 10000 nM |  |  |  |
| CNC(=O)[C@@H](NC(=O)c1nc(-c2ccccc2)n2c1CN(CCC(C)(C)C)CC2)C(C)(C)C [Compound 54, (S)-N-(3,3-dimethyl-1-(methylamino)-1-oxobutan-2-yl)-7-(3,3-dimethylbutan)-3-phenyl-5,6,7,8-tetrahydroimidazo[1,5-a]pyrazine-1-carboxamide] | − | > 10000 nM |  |  |  |
| CCN1CCn2c(-c3ccc(Cl)cc3)nc(C(=O)NCCC(C)C)c2C1 [Compound 158, 3-(4-chlorophenyl)-7-ethyl-N-isopentyl-5,6,7,8-tetrahydroimidazo[1,5-a]pyrazine-1-carboxamide] | − | > 10000 nM |  |  |  |
| CC(C)(C)CNC(=O)c1nc(-c2ccccc2)n2c1CN(S(=O)(=O)c1ccc(F)cc1)CC2 [Compound 103, 7-(4-fluorophenylsulfonyl)-N-neopentyl-3-phenyl-5,6,7,8-tetrahydroimidazo[1,5-a]pyrazine-1-carboxamide] | − | > 10000 nM |  |  |  |
| CC(C)C[C@H](NC(=O)c1nc(C2CCCCC2)n2c1CN(C)CCC2)C(N)=O [Compound 570, (S)-N-(1-amino-4-methyl-1-oxopentan-2-yl)-3-cyclohexyl-8-methyl-6,7,8,9-tetrahydro-5H-imidazo[1,5-a][1,4]diazepine-1-carboxamide] | + |  |  |  | + |
| CNC(=O)[C@@H](NC(=O)c1nc(-c2ccc(C(N)=O)cc2)n2c1CN(C)CCC2)C(C)(C)C [Compound 423, (S)-3-(4-carbamoylphenyl)-N-(3,3-dimethyl-1-(methylamino)-1-oxobutan-2-yl)-8-methyl-6,7,8,9-tetrahydro-5H-imidazo[1,5-a][1,4]diazepine-1-carboxamide] |  | > 10000 nM |  | > 10 µM |  |
